In patent US9963446B2, “Oxepan-2-yl-pyrazol-4-yl-heterocyclyl-carboxamide compounds and methods of use” (Genentech, Inc., priority 2014, dated 2018):

Tests used:
PIM1 = PIM1 (Homo sapiens (Human), UniProt P11309); experiment: Pim kinase binding activity (PIM1 LC3K Ki); assay type: biochemical; details: 20 pM PIM1, 10 μM ATP, 90 minutes
Description: PIM-1, -2, and -3 enzymes were generated as fusion proteins expressed in bacteria and purified by IMAC column chromatography (Sun, X., Chiu, J. F., and He, Q. Y. (2005) Expert Rev. Proteomics, 2:649-657). A fluorescent-labeled Pim-specific peptide substrate, was custom synthesized by American Peptide Company (Sunnyvale, Calif.). Reaction Buffer contained 10 mM HEPES, pH 7.2, 10 mM MgCl2, 0.01% Tween 20, 2 mM DTT. Termination Buffer contained 190 mM HEPES, pH 7.2, 0.015% Brij-35, 0.2% Coating Reagent 3 (Caliper Life Sciences, Hopkinton, Mass.), 20 mM EDTA. Separation Buffer contained 100 mM HEPES, pH 7.2, 0.015% Brij-35, 0.1% Coating Reagent 3, 1:200 Coating Reagent 8 (Caliper Life Sciences, Hopkinton, Mass.), 10 mM EDTA and 5% DMSO.
PIM reactions were carried out in a final volume of 10 μL per well in a 384-well plate. A standard enzymatic reaction, initiated by the addition of 5 μL 2×ATP and test compound to 5 μL of 2× enzyme and FAM-peptide, contained 20 pM PIM1, 50 pM PIM2, or 55 pM PIM3, 1 μM FAM-peptide, and 10 μM ATP, in Reaction Buffer. After 90 minutes of incubation at room temperature, the phosphorylation reaction was stopped by the addition of 10 μL Termination Buffer. The product and substrate in each independent reaction were separated on a 12-sipper microfluidic chip (Caliper Life Sciences, Hopkinton, Mass.) run on a Caliper LC3000® (Caliper Life Sciences, Hopkinton, Mass.). The separation of product and substrate was optimized by choosing voltages and pressure using Caliper's Optimizer software (Hopkinton, Mass.). The separation conditions used a downstream voltage of −500V, an upstream voltage of −2150V, and a screening pressure of −1.2 psi. The product and substrate fluorophore were excited at 488 nm and detected at 530 nm. Substrate conversion was calculated from the electropherogram using HTS Well Analyzer software (Caliper Life Sciences, Hopkinton, Mass.). Ki values for the test compound were calculated. See Table 1 for representative PIM1 LC3K Ki in micromolar values of exemplary compounds.

[1] = test system: MM1.S (multiple myeloma) cells; experiment: In vitro cell proliferation, MM1.S (CELL TITER GLO); assay type: cell-based; details: Homo sapiens, 72 hours, read-out: Prolif MM1S ATP (EC50)
Description: (§1) BaF3 parental line was obtained from the DSMZ repository. BaF3 lines transfected with PIM1 or PIM2 were generated. Mouse IL-3 was purchased from R&D Systems. G418 was purchased from Clontech. Media for BaF3 parental line contained RPMI, 10% FBS, 2 mM L-Glutamine, 2 ng/mL mIL-3. Media for BaF3 PIM1 & 2 lines contained RPMI, 10% FBS, 2 mM L-Glutamine, […]. Media for MM1.S (multiple myeloma cells) line contained RPMI, 10% FBS, 2 mM L-Glutamine.
(§2) BaF3, a murine interleukin-3 dependent pro-B cell line, parental cells, BaF3 PIM1 cells, BaF3 PIM2 cells, and MM1.S (multiple myeloma) cells were seeded at 2 k/well, 5 k/well, 5 k/well, and 10 k/well respectively, in a 384-well plate, at 45 μL/well. Test compound was added at 5 μL/well. BaF3 cells (parental and transfected) were incubated overnight, while MM1.S cells were incubated for 72 hours at 37° C., 5% CO2. CELL TITER GLO® Reagent (Promega) was added at 50 μL/well, the plates were incubated for 30 minutes, and their luminescence read on an HT Analyst. IC50/EC50 values for the test compound were calculated.

BaF3 parental cells = experiment: In vitro cell proliferation, BaF3 parental line + IL3; assay type: cell-based, murine; details: Mus musculus; BaF3 parental line with mIL-3, incubated overnight; read-out: Prolif BaF3 + IL3 (IC50)
Description: as §1, §2

BaF3 PIM1 cells = experiment: In vitro cell proliferation, BaF3 transfected with PIM1; assay type: cell-based, murine; details: Mus musculus; BaF3 PIM1 line, incubated overnight; read-out: Prolif BaF3 PIM1 (IC50)
Description: as §1, §2

PIM1, sequence (P11309 whole entry, the tested form may be a part): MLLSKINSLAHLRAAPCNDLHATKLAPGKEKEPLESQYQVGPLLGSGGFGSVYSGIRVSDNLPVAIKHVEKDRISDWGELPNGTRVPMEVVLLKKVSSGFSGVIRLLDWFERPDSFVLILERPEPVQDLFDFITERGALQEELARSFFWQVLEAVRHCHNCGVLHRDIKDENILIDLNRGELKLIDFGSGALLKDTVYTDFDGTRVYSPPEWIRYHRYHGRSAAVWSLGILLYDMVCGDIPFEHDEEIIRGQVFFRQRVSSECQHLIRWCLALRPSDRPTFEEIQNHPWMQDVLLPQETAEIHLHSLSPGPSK

Row | Compound | Ki (PIM1) [nM] | EC50 [1] [nM] | IC50 (BaF3 parental cells) [nM] | IC50 (BaF3 PIM1 cells) [nM]
1 | Cn1ncc(NC(=O)c2csc(-c3c(F)cc4c(c3F)OCC[C@H]4O)n2)c1[C@@H]1CC[C@@H](N)[C@H](F)CO1 [Example 112, N-(5-((2S,5R,6S)-5-amino-6-fluorooxepan-2-yl)-1-methyl-1H-pyrazol-4-yl)-2-((R)-6,8-difluoro-4-hydroxychroman-7-yl)thiazole-4-carboxamide] | 0.004 | 202 | > 25000 | 118
2 | Cn1ncc(NC(=O)c2csc(-c3n[nH]c4c3CCC4)n2)c1[C@@H]1CC[C@@H](N)[C@H](F)CO1 [Example 113, N-[5-[(2S,5R,6S)-5-amino-6-fluoro-oxepan-2-yl]-1-methyl-pyrazol-4-yl]-2-(1,4,5,6-tetrahydrocyclopenta[c]pyrazol-3-yl)thiazole-4-carboxamide] | 0.03 | 906 | 13600 | 327
3 | N[C@H]1CC[C@H](c2c(NC(=O)c3ccc(F)c(-c4c(F)cccc4F)n3)cnn2C2CC2)OC[C@@H]1F [Example 114, N-[5-[(2R,5S,6R)-5-amino-6-fluoro-oxepan-2-yl]-1-cyclopropyl-pyrazol-4-yl]-6-(2,6-difluorophenyl)-5-fluoro-pyridine-2-carboxamide] | 0.173 | 443 | 10100 | 75.1
4 | CO[C@H]1[C@H](N)CC[C@@H](c2c(NC(=O)c3csc(-c4c(F)cccc4F)n3)cnn2C)O[C@H]1C [Example 117, N-[5-[(2S,5R,6S,7S)-5-amino-6-methoxy-7-methyl-oxepan-2-yl]-1-methyl-pyrazol-4-yl]-2-(2,6-difluorophenyl)thiazole-4-carboxamide] | 0.0325 | 53.9 | 6900 | 14
5 | CO[C@H]1[C@H](N)CC[C@@H](c2c(NC(=O)c3csc(-c4c(F)cccc4F)n3)cnn2C)O[C@@H]1C [Example 118, N-(5-((2S,5R,6S,7R)-5-amino-6-methoxy-7-methyloxepan-2-yl)-1-methyl-1H-pyrazol-4-yl)-2-(2,6-difluorophenyl)thiazole-4-carboxamide] | 0.006 | 67.3 | 2500 | 8.95
6 | COc1cnc(-c2nc(C(=O)Nc3cnn(C)c3[C@@H]3CC[C@@H](N)[C@H](F)CO3)cs2)c(C)c1 [Example 119, N-[5-[(2S,5R,6S)-5-amino-6-fluoro-oxepan-2-yl]-1-methyl-pyrazol-4-yl]-2-(5-methoxy-3-methyl-2-pyridyl)thiazole-4-carboxamide] | 0.043 | 407 | 2900 | 49.2
7 | Cn1ncc(NC(=O)c2csc(-c3cccc4cccnc34)n2)c1[C@@H]1CC[C@@H](N)[C@H](F)CO1 [Example 120, N-[5-[(2S,5R,6S)-5-amino-6-fluoro-oxepan-2-yl]-1-methyl-pyrazol-4-yl]-2-(8-quinolyl)thiazole-4-carboxamide] | 1.79 | 228 | 2300 | 563
8 | C[C@@H]1O[C@H](c2c(NC(=O)c3csc(-c4c(F)cccc4F)n3)cnn2C)CC[C@@H](N)[C@H]1F [Example 121, N-(5-((2S,5R,6R,7S)-5-amino-6-fluoro-7-methyloxepan-2-yl)-1-methyl-1H-pyrazol-4-yl)-2-(2,6-difluorophenyl)thiazole-4-carboxamide] | 0.0049 | 376 | 14200 | 12.2
9 | Cn1ncc(NC(=O)c2csc(-c3cn4ccnc4cn3)n2)c1[C@@H]1CC[C@@H](N)[C@H](F)CO1 [Example 122, N-(5-((2S,5R,6S)-5-amino-6-fluorooxepan-2-yl)-1-methyl-1H-pyrazol-4-yl)-2-(imidazo[1,2-a]pyrazin-6-yl)thiazole-4-carboxamide] | 0.025 | 600 | 12500 | 184
